Data reported in patent US20090069394A1, “CANCER TREATMENT WITH EPOTHILONES” (priority 2003, published 2009).

What was measured:
[1] = cited from earlier work
[2] = system: colorectal, renal, prostatic, pancreatic, gastric and brain cancers; conditions: cited from earlier work
[3] = Tolerability (body weight) in KB-8511 tumor-bearing mice; format: in vivo, BALB/c nude mice
Method: The experimental details of the human tumor xenograft model has been described previously. A maximum of 10 female nude mice are kept under sterile conditions (type III cage, in an OHC zone) with free access to food and water. KB-8511 tumors are established by subcutaneous injection of cells (2×10^6 cells in 100 μL PBS). The resulting tumors (at a size of 700 to 1000 mm3) are passaged in vivo at least 3 times prior to chemotherapy experimentation, and tumor-bearing mice are treated with Adriablastin/EÊ at 3 mg/kg (10 mL/kg) every week, in order to keep high levels of pgp170 expression. Tumor fragments of about 25 mg are implanted subcutaneously into the left flank of the animals with a 13 gauge trocar needle under Forene/EÊ (Abbott, Switzerland) anesthesia. Unless otherwise stated, treatments are always initiated when the mean tumor volume in each group reached 100 mm3. […] 7,11-Dihydroxy-8,8,10,12,16-pentamethyl-[1-methyl-2-(2-methylsulfanyl-thiazol-4-yl)-vinyl]-4,17-dioxa-bicyclo[14.1.0]heptadecane-5,9-dione is administered i.v. and tumor volumes and body weights are measured twice per week. Tumor volumes are determined by using callipers for measurement of longest (considered as Length) and shortest (considered as Diameter) dimensions of each tumors, and according to the formula Length×Diameter2×δ/6. Tumor growth and body weights are monitored twice weekly. […]

[4] = system: Human epidermoid carcinoma KB-8511 cells; assay: KB-8511 human tumor xenograft model, loading/maintenance dosage regimens; format: in vivo, BALB/c nude mice
Method: 7,11-Dihydroxy-8,8,10,12,16-pentamethyl-3-[1-methyl-2-(2-methylsulfanyl-thiazol-4-yl)-vinyl]-4,17-dioxa-bicyclo[14.1.0]heptadecane-5,9-dione is dissolved in PEG300 and immediately diluted with saline (0.9% w/v NaCl) to the desired final concentration to be administered to mice as. The injected volume is 10 ml/kg i.v. Formulations are prepared immediately before use. Adriablastin/EÊ (Pharmacia and Upjohn) is purchased as a 2 mg/mL solution, and diluted with saline (0.9% NaCl) to prepare the 0.3 mg/mL solution used to treat animals. Taxol. (Bristol-Myers Squibb AG) is purchased as a 6 mg/ml solution, and diluted with saline to prepare the 1.5 mg/ml solution used to treat animals.
Human epidermoid carcinoma KB-8511 cells are obtained from Dr R. M. Baker, Roswell, Park Memorial Institute (Buffalo, N.Y., USA). Because of pgp170 overexpression, these cells are multi-drug resistant (Akiyama, et al 1985). KB-8511 cells are cultured as previously described.
The experimental details of the human tumor xenograft model has been described previously. A maximum of 10 female nude mice are kept under sterile conditions (type III cage, in an OHC zone) with free access to food and water. […] 7,11-Dihydroxy-8,8,10,12,16-pentamethyl-[1-methyl-2-(2-methylsulfanyl-thiazol-4-yl)-vinyl]-4,17-dioxa-bicyclo[14.1.0]heptadecane-5,9-dione is administered i.v. and tumor volumes and body weights are measured twice per week. Tumor volumes are determined by using callipers for measurement of longest (considered as Length) and shortest (considered as Diameter) dimensions of each tumors, and according to the formula Length×Diameter2×δ/6. Tumor growth and body weights are monitored twice weekly. When mentioned, antitumor activity is expressed as TIC % (mean increase of tumor volumes of treated animals divided by the mean increase of tumor volumes of control animals multiplied by 100) and/or as Tumor Regression (Reg %), calculated as ((mean tumor volume at the start of treatment minus mean tumor volume)/mean tumor volume at the start of treatment)×100. […]

[5] = parameters: species or system BALB/c nude mice; conditions: mouse, in vivo
Method: BALB/c nude mice bearing KB-8511 xenograft tumors (initial volume of 250 mm3) were treated using various loading and maintenance dosage regimens to probe the validity of such regimens and to validate the predictions obtained with the PK-PD model. […] The kinetics of body weight loss on some of the tested loading and maintenance dosage regimens (L/MDR) were more benign (i.e. less fluctuating) than those observed on the corresponding fixed dosage regimens (FDR). […] It is concluded that the loading and maintenance dosing concept, by taking into account the very slow elimination rate of NVP-ABJ879, appears to represent an alternative dosing schemeunder which this drug can be dosed weekly.

Structure (SMILES)	solubility in water [1]	clinical activity as a single agent [2]	tolerability (stabilization of the body weight loss) ([3]; loading and maintenance 1.5 mg/kg-0.5 mg/kg or 2.1 mg/kg-0.7 mg/kg, weekly i.v.)	kinetics of body weight loss ([3]; some loading and maintenance dosage regimens (L/MDR) versus corresponding fixed dosage regimens (FDR))	tumor relapse ([4]; 1.5/0.5 mg/kg dosing)	antitumor activity where tolerability improved (dose optimization) ([4]; initial tumor volume 100 mm3, tolerability assessed on body weight change)	antitumor activity ([4]; loading and maintenance 1.5 mg/kg-0.5 mg/kg or 2.1 mg/kg-0.7 mg/kg, weekly i.v., initial tumor volume 250 mm3)	elimination rate [5]
CC(=O)O[C@H]1C(=O)[C@@]2(C)[C@H]([C@H](OC(=O)c3ccccc3)[C@]3(O)C[C@H](OC(=O)[C@H](O)[C@@H](NC(=O)c4ccccc4)c4ccccc4)C(C)=C1C3(C)C)[C@]1(OC(C)=O)CO[C@@H]1C[C@@H]2O [TAXOL®, paclitaxel]	extremely low	poorly active clinically						
CSc1nc(C=C(C)C2CC3OC3(C)CCCC(C)C(O)C(C)C(=O)C(C)(C)C(O)CC(=O)O2)cs1 (centres unmarked) [7,11-Dihydroxy-8,8,10,12,16-pentamethyl-3-[1-methyl-2-(2-methylsulfanyl-thiazol-4-yl)-vinyl]-4,17-dioxa-bicyclo[14.1.0]heptadecane-5,9-dione]			enhanced tolerability	more benign	tumor relapse was observed in some of the animals	reduced antitumor activity	strong antitumor activity	very slow
